The results in this text go back to US11116799B2, “Generation of uniform hepatocytes from human embryonic stem cells by inhibiting TGF-beta and methods of maintaining hepatic cultures” (Wisconsin Alumni Research Foundation, priority 2016, dated 2021).

The subject of data set [1] is H9-ALB-GFP/AFP-Tomato (dual clone 1). Put plainly: Gene expression of hepatocytes differentiated from ES cells with 3 or 18 days of Activin A. More on the design: scale not given here. The conditions noted are these: dual clone 1 hepatocytes, unsorted. The class given is cell-based, human. The procedure:
The H9-ALB-GFP/AFP-Tomato (dual clone 1) were differentiated to hepatocytes using the protocol depicted in FIG. 4. Either 3 day or 18 days of Activin A treatment was used with the rest of the protocol being the same. The cells were not sorted and differentiated for 18 and 33 days (for 3 and 18 day DE respectively).
ES cells were cultured in E8 medium (Reference 2) and were differentiated to hepatocytes following a previously published protocol (Reference 1) with modifications. Briefly, at approximately 50% confluency the ES cells were singularized by accutase and seeded on matrigel coated plate in E6 medium containing 100 ng/ml Activin A (Sigma). They were cultured in the Activin A medium for seven days. From day 8 to day 12 the cells were treated with 25 ng/ml FGF4 (R&D Systems) along with 20 ng/ml BMP2 in E6. During days 13 through 17 the cells were treated with 20 ng/ml HGF (R&D Systems) and 10 ng/ml Oncostatin M (R&D Systems) in E6. Finally, the cells were cultured in E6 containing 0.1 μM Dexamethasone (Sigma) from day 18 to day 22. From day 8 onwards, SB431542 and DAPT were added to the medium to inhibit TGFB and NOTCH respectively at 10 μM final concentration.

In data set [2] the test system is primary human hepatocytes (PHHs). Kind of data set: RNA-Seq gene expression in MAPK inhibitor treated primary human hepatocytes. The class given is cell-based. Here is the method:
[…]. […] […].
For small RNA-Seq profiling, hepatocytes from Hu8082 were used; for de-differentiation time course and let-7c transduction, hepatocytes from Hu4260, Hu8135, Hu4279 and Hu8137 were used. For both experiments, cells from all 4 donors were mixed in equal numbers after assessment of viability. For small molecule treatments, batch Hu4260 was used.
RNA-Seq was performed by LM-Seq (Illumina).
For small molecule treatments, batch Hu4260 was used.
. To ascertain that the increase in metabolic enzymes took place through specific MAPK inhibition, PHHs were treated with a second MAPK inhibitor, PD0325901, for 72 hours, followed by RNA-Seq analysis (Supplementary Table 4). […].

Data set [3] has as its system HepG2 cells. Put plainly: HepG2 viability / cell growth (cell counting by dye exclusion). In kind it is cell-based, human. The conditions noted are these: HepG2, 72 hours, compared to vehicle control. Here is the method:
CYP2C9 and 3A4 metabolism were measured using CYP450 Glo assay (Promega). In short, substrates were added to the media and incubated for 72 hours and the amount of metabolites generated were measured by adding the detection reagent and quantifying the luminescence in a Tecan® plate reader. Background was measured by incubating the substrates for 72 hours in the same media without cells. Cell counting for proliferation assay was carried out by dye exclusion in an automated cell counter (ThermoFisher).

Data set [4] concerns primary mouse hepatocytes. Kind of data set: RNA-Seq gene expression in primary mouse hepatocytes treated with kinase inhibitors. The settings on record: 10 μM, 72 hours. An excerpt:
The next step was to determine if the PI3/Akt and MAPK pathways are involved in maintenance of hepatocyte maturation. We investigated whether small molecule inhibition of these pathways would mimic let-7's action and reduce the loss of mature function of hepatocytes in culture after removal from their microenvironment. […] Then, expression of the top ten important metabolic enzymes (CYPs, UGTs and transporters) by RNA-Seq with uncultured fresh hepatocytes and control vehicle hepatocytes treated for 72 hours was compared.
Hepatocytes from 6 black mice livers were isolated by perfusion following standard protocol and cultured on Matrigel coated plates in hepatocyte growth medium (Promocell). Whole developing livers from 6 black mice were used for RNA isolation with Trizol for let-7c measurements.
Total RNA (including microRNA) from all cells, which were not mentioned otherwise, were isolated using RNAeasy Plus Kit […] following manufacturers protocol. RNA-Seq was performed by LM-Seq (Illumina). MicroRNAs were sequenced using Illumina's small RNA sequencing kit. Expression of let-7 and U6 snoRNA were measured by quantitative PCR using ABI's kit. Let-7c expression levels were normalized by U6 snoRNA expression (RQ or relative quantity values, error bars representing standard error, RQ min and RQ max).
Multiple batches of cryopreserved induction qualified human hepatocytes (each batch being from one donor) were purchased from Life Technologies and cultured on Matrigel coated plates in hepatocyte growth medium (PromoCell). For dedifferentiation studies, hepatocytes from batches Hu4260, Hu8135, Hu4279 and Hu8137 were used after mixing equal number of live cells. For small molecule treatments, batch Hu4260 was used. Mouse hepatocytes were isolated from Black 6 mice livers by perfusion following standard protocol and cultured on Matrigel coated plates in hepatocyte growth medium (Promocell).
Total RNA were isolated using RNAeasy Plus Kit (Qiagen) following manufacturers protocol and qualified with the Life Technologies Qubit fluorometer and Agilent Bioanalyzer. […] Final indexed cDNA libraries were pooled and sequenced on an Illumina HiSeq 2500. Base-calling and demultiplexing were performed using Casava (v1.8.2). Sequences were filtered and trimmed to remove low quality reads, adapters, and other sequencing artifacts. The remaining reads were aligned to a reference database comprising only RefSeq-validated transcripts (i.e., assigned an “NM_” accession). Mouse samples were aligned to the mm10 assembly, and human samples were aligned to the hg19 assembly. […] Reads with more than 200 alignments were excluded from further analysis. […] All RNA-seq results have been deposited at NCBI's GEO under Accession No. GSE94353.
The inventors next investigated whether the MAPK and PI3/Akt pathways contributed to the dedifferentiation of hepatocytes. […] Rapamycin was included as a control, which is an inhibitor of the mTOR pathway, a serine/threonine kinase involved in cell signaling not identified as a key pathway in our analysis.

The mark [5] stands for this setting: 3 day Activin A (DE), differentiated 18 days.
Setting [6] is: 18 day Activin A (DE), differentiated 33 days.
[7] abbreviates: primary human hepatocytes, treated 72 hours.

In data set [1] (setting [5]), “Activing A: Activin A, growth factor used to differentiate pluripotent stem cells to definitive endoderm” registered an AFP gene expression of 1663.62, an ALB gene expression of 600.43, a CYP1A1 gene expression of 23.85 and a CYP2C9 gene expression of 2.26. In addition, in data set [1] (setting [5]), the CYP2D6 gene expression was 2.24, the CYP2E1 gene expression was 0, the CYP3A4 gene expression was 0.92 and the U6T1A1 gene expression is recorded as 3.86. The UGT1A6 gene expression in data set [1] (setting [5]) is listed as 1.75. Also, in data set [1] (setting [6]), the AFP gene expression stood at 8635.2, the ALB gene expression is 5129.36, the CYP1A1 gene expression is reported as 80.48 and the CYP2C9 gene expression is 76.46. In data set [1] (setting [6]), this molecule registered a CYP2D6 gene expression of 3.51, a CYP2E1 gene expression of 0.4, a CYP3A4 gene expression of 33.64 and a U6T1A1 gene expression of 66.36. Moreover, in data set [1] (setting [6]), the UGT1A6 gene expression worked out at 23.94.

For `O=C(NOC[C@H](O)CO)c1ccc(F)c(F)c1Nc1ccc(I)cc1F` [PD0325901], in data set [2] (PHHs treated 72 hours), the HBV receptor expression result was “upregulated”. In addition, in data set [2] (setting [7]), the AFP gene expression was 7.07 transcripts per million, the ALB gene expression came out at 1293.62 transcripts per million, the CD81 gene expression came out at 388.31 transcripts per million and the CYP1A2 gene expression was 1.87 transcripts per million. In data set [2] (setting [7]), this molecule returned a CYP1B1 gene expression of 3.56 transcripts per million, a CYP2C9 gene expression of 73.61 transcripts per million, a CYP2D6 gene expression of 1.24 transcripts per million and a CYP2E1 gene expression of 4.94 transcripts per million. In data set [2] (setting [7]), this molecule returned a CYP3A4 gene expression of 22.44 transcripts per million, an SLCO1B1 gene expression of 151.48 transcripts per million, an SLCO1B3 gene expression of 7.24 transcripts per million and a UGT1A1 gene expression of 69.02 transcripts per million. In data set [2] (setting [7]), the UGT1A6 gene expression was 1337.30 transcripts per million and the UGT1A9 gene expression is listed as 87.51 transcripts per million. In addition, the “HepG2 viability / cell growth” value in data set [3] was “increased cell death and growth arrest”.

In data set [4], `O=c1cc(N2CCOCC2)oc2c(-c3ccccc3)cccc12` [LY294002] registered an ABCC2 gene expression of 232.34 transcripts per million, a CYP1A2 gene expression of 80.54 transcripts per million, a CYP2C9 gene expression of 1332.65 transcripts per million and a CYP2E1 gene expression of 57.37 transcripts per million. In data set [4], the CYP3A11 gene expression worked out at 1409.71 transcripts per million, the CYP3A25 gene expression was 61.42 transcripts per million, the UGT1A6A gene expression is reported as 48.21 transcripts per million and the UGT1A9 gene expression was determined as 15.27 transcripts per million. In data set [4], the UGT1A10 gene expression came to 0.86 transcripts per million and the UGT2B5 gene expression is on record as 196.44 transcripts per million.
